Laboratory results published in patent publication US20100212218A1, “5-(SUBSTITUTED METHYL) 2-METHYLFURAN” (FURANIX TECHNOLOGIES B.V., priority 2007, published 2010).

Assay: Fuel solubility: miscibility in blends with commercial diesel
Type: physicochemical
Description: Fuel solubility is a primary concern for diesel fuel applications. Not all highly polar oxygenates have good solubility in the current commercial diesel fuels.

[1] = all blend ratios with commercial diesel

Row | SMILES | miscibility with commercial diesel [1] | miscibility with commercial diesel (5 vol % blend with commercial diesel) | miscibility with commercial diesel (25 vol % blend with commercial diesel) | miscibility with commercial diesel (40 vol % blend with commercial diesel)
1 | CCOCc1ccc(C)o1 [5-(ethoxymethyl)-2-methylfuran] | miscible in all blend ratio's |  |  | 
2 | Cc1ccc(COC(C)(C)C)o1 [5-(tertbutoxymethyl)-2-methylfuran] | miscible in all blend ratio's |  |  | 
3 | CCOCc1ccc(C=O)o1 [EMF, 5-(ethoxymethyl)furfural] |  | completely miscible | phase separation occurs | phase separation occurs
